The text below walks through data of patent publication US9795695B2, “Process for the preparation of gadobenate dimeglumine complex in a solid form” (BRACCO IMAGING S.p.A., priority 2009, dated 2017).

This series can be described thus: dissolution of the solid form in water. The settings on record: for time for dissolution in water: room temperature. The format is physicochemical.

Take `CNC[C@H](O)[C@@H](O)[C@H](O)[C@H](O)CO.CNC[C@H](O)[C@@H](O)[C@H](O)[C@H](O)CO.O=C([O-])CN(CCN(CC(=O)[O-])CC(=O)O)CCN(CC(=O)O)C(COCc1ccccc1)C(=O)[O-].[Gd+3]` (stereo not shown) [Comparative Example 2a, gadobenate dimeglumine]: the “ease of dissolution (in words)” value (aqueous solution) is listed as “difficult to collect and, in case, to re-dissolve”.
On to `CNC[C@H](O)[C@@H](O)[C@H](O)[C@H](O)CO.CNC[C@H](O)[C@@H](O)[C@H](O)[C@H](O)CO.O=C([O-])CN(CCN(CC(=O)[O-])CC(=O)O)CCN(CC(=O)O)C(COCc1ccccc1)C(=O)[O-].[Gd+3]` (stereo not shown) [gadobenate dimeglumine], for which the “time for dissolution in water” value is reported as “few seconds”. Besides, the “water required to dissolve 1 g of product” value (per 1 g of product, room temperature (20° C. to 30° C.)) is “less than 1 mL”. Where the note is “listed as powdered gadobenate”, the “time for dissolution in water” value is listed as “less than one minute”.
